# Measurements published in patent US10966426B2, “Herbicidal compositions comprising phenylpyrimidines” (BASF SE, priority 2016, dated 2021).
# Columns and labels:
# Format in all cases: in vivo
# Poa annua = assay: greenhouse post-emergence treatment, POAAN; conditions: 21 DAT
# Method: (§1) The culture containers used were plastic pots containing loamy sand with approximately 3.0% of humus as substrate. The seeds of the test plants were sown separately for each species.
# (§2) For the post-emergence treatment, the test plants were grown to a plant height of from 3 to 15 cm, depending on the plant habit, and only then treated with the active compounds which had been suspended or emulsified in water. To this end, the test plants were either sown directly, and grown in the same containers, or they were first grown separately as seedlings and transplanted into the test containers a few days prior to treatment.
# (§3) Depending on the species, the plants were kept at 10-25° C. and 20-35° C., respectively.
# (§4) The test period extended over 2 to 4 weeks. During this time, the plants were tended and their response to the individual treatments was evaluated.
# (§5) Evaluation was carried out using a scale from 0 to 100. 100 means no emergence of the plants, or complete destruction of at least the above-ground parts, and 0 means no damage or normal course of growth. A good herbicidal activity is given at values of at least 70, and very good herbicidal activity is given at values of at least 85.
# (§6) The respective stated components A and B, and if appropriate, C were formulated as a 10% by weight strength emulsion concentrate and, with addition of the amount of solvent system, introduced into the spray liquor used for applying the active compound. In the examples, the solvent used was water.
# (§7) In the examples below, using the method of S. R. Colby (1967) “Calculating synergistic and antagonistic responses of herbicide combinations”, Weeds 15, p. 22ff., the value E, which is expected if the activity of the individual active compounds is only additive, was calculated. E=X+Y−(X·Y/100) where X=effect in percent using herbicide A at an application rate a; • Y=effect in percent using herbicide B at application rate b; • E=expected effect (in %) of herbicide A+herbicide B at application rates a+b.
# Alopecurus myosuroides = assay: greenhouse post-emergence treatment, ALOMY; conditions: 21 DAT
# Summary of the method: (§8)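 Plants were grown in pots of loamy sand with approximately 3.0% humus, either sown directly or transplanted as seedlings a few days before treatment, and sprayed with water-based treatments. They were kept at 10-25° C. or 20-35° C. depending on species and rated visually after 2 to 4 weeks on a 0–100 scale (100 = no emergence or complete destruction of above-ground parts).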
# Papaver rhoeas = assay: greenhouse post-emergence treatment, PAPRH; conditions: 21 DAT
# Summary of the method: (§9)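 Each species was grown separately and treated once it reached 3 to 15 cm, using actives suspended or emulsified in water. Plants were kept at 10-25° C. or 20-35° C., depending on species. Damage is a 0–100 rating taken during 2 to 4 weeks.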
# Avena fatua = assay: greenhouse post-emergence treatment, AVEFA; conditions: Avena fatua, 504 h, 21 DAT, AVEFA
# Summary of the method: as §8
# Matricaria chamomilla = assay: greenhouse post-emergence treatment, MATCH; conditions: 21 DAT
# Summary of the method: as §9
# Lolium multiflorum = assay: greenhouse post-emergence treatment, LOLMU; conditions: 21 DAT
# Summary of the method: as §8
# Polygonum convolvulus = assay: greenhouse post-emergence treatment, POLCO; conditions: 21 DAT
# Method: as §1, §2, §3, §4, §5, §6, §7
# Setaria viridis = assay: greenhouse post-emergence treatment, SETVI; conditions: 21 DAT
# Summary of the method: as §8
# Galium aparine = assay: greenhouse post-emergence treatment, GALAP; conditions: Galium aparine, 504 h, GALAP, 21 DAT
# Summary of the method: as §9
# Stellaria media = assay: greenhouse post-emergence treatment, STEME; conditions: Stellaria media, 504 h, pyroxasulfone solo 30 gai/ha, 21 DAT, STEME
# Summary of the method: (§10)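 Ratings of 0 to 100 reflect above-ground destruction versus normal growth after 2 to 4 weeks. Actives were sprayed post-emergence as water-diluted 10% emulsion concentrates onto plants 3–15 cm high.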
# Echinocloa crus-galli = assay: greenhouse post-emergence treatment, ECHCG; conditions: 21 DAT, ECHCG
# Method: as §1, §2, §3, §4, §5, §6, §7
# Digitaria sanguinalis = assay: greenhouse post-emergence treatment, DIGSA; conditions: 21 DAT
# Summary of the method: as §8
# Bromus sterilis = assay: greenhouse post-emergence treatment, BROST; conditions: 21 DAT
# Summary of the method: as §8
# Brachiaria decumbens = assay: greenhouse post-emergence treatment, BRADC; conditions: Urochloa decumbens, 504 h, 21 DAT, BRADC
# Summary of the method: as §10
# Ambrosia elatior = assay: greenhouse post-emergence treatment, AMBEL; conditions: 21 DAT
# Method: as §1, §2, §3, §4, §5, §6, §7
# Apera spica-venti = assay: greenhouse post-emergence treatment, APESV; conditions: 21 DAT
# Method: as §1, §2, §3, §4, §5, §6, §7
smiles,measurement,setting,value
Cn1nc(C(F)(F)F)c(CS(=O)(=O)C2=NOC(C)(C)C2)c1OC(F)F [pyroxasulfone],inhibition at 15 g/ha,"Poa annua; Poa annua, 504 h, pyroxasulfone solo 15 gai/ha, POAAN",70%
same,inhibition at […],"Alopecurus myosuroides; Alopecurus myosuroides, 504 h, pyroxasulfone solo 7.5 gai/ha, ALOMY",35%
same,inhibition at 30 g/ha,"Alopecurus myosuroides; Alopecurus myosuroides, 504 h, pyroxasulfone solo 30 gai/ha, ALOMY",65%
same,pest or weed control at […],"Papaver rhoeas; Papaver rhoeas, 504 h, PAPRH, solo pyroxasulfone (WG 85%) 7.5 gai/ha",0%
same,pest or weed control at 15 g/ha,"Papaver rhoeas; Papaver rhoeas, 504 h, PAPRH, solo pyroxasulfone (WG 85%) 15 gai/ha",0%
same,pest or weed control at 30 g/ha,"Papaver rhoeas; Papaver rhoeas, 504 h, PAPRH, solo pyroxasulfone (WG 85%) 30 gai/ha",30%
same,pest or weed control at 60 g/ha,"Papaver rhoeas; Papaver rhoeas, 504 h, PAPRH, solo pyroxasulfone (WG 85%) 60 gai/ha",60%
same,inhibition at 15 g/ha,"Papaver rhoeas; Papaver rhoeas, 504 h, pyroxasulfone solo 15 gai/ha, PAPRH",0%
same,inhibition at 60 g/ha,"Papaver rhoeas; Papaver rhoeas, 504 h, pyroxasulfone solo 60 gai/ha, PAPRH",60%
same,inhibition at […],Avena fatua; pyroxasulfone solo 7.5 gai/ha,25%
same,inhibition at 15 g/ha,Avena fatua; pyroxasulfone solo 15 gai/ha,30%
same,pest or weed control at 15 g/ha,"Matricaria chamomilla; Matricaria chamomilla, 504 h, MATCH, solo pyroxasulfone (WG 85%) 15 gai/ha",0%
same,inhibition at 15 g/ha,"Matricaria chamomilla; Matricaria chamomilla, 504 h, pyroxasulfone solo 15 gai/ha, MATCH",0%
same,inhibition at […],"Lolium multiflorum; Lolium multiflorum, 504 h, pyroxasulfone solo 7.5 gai/ha, LOLMU",40%
same,inhibition at 15 g/ha,"Lolium multiflorum; Lolium multiflorum, 504 h, pyroxasulfone solo 15 gai/ha, LOLMU",65%
same,inhibition at 30 g/ha,"Lolium multiflorum; Lolium multiflorum, 504 h, pyroxasulfone solo 30 gai/ha, LOLMU",70%
same,pest or weed control at […],"Polygonum convolvulus; Fallopia convolvulus, 504 h, POLCO, solo pyroxasulfone (WG 85%) 7.5 gai/ha",30%
same,pest or weed control at 15 g/ha,"Polygonum convolvulus; Fallopia convolvulus, 504 h, POLCO, solo pyroxasulfone (WG 85%) 15 gai/ha",30%
same,pest or weed control at 30 g/ha,"Polygonum convolvulus; Fallopia convolvulus, 504 h, POLCO, solo pyroxasulfone (WG 85%) 30 gai/ha",30%
same,pest or weed control at 60 g/ha,"Polygonum convolvulus; Fallopia convolvulus, 504 h, POLCO, solo pyroxasulfone (WG 85%) 60 gai/ha",30%
same,inhibition at […],"Polygonum convolvulus; Fallopia convolvulus, 504 h, pyroxasulfone solo 7.5 gai/ha, POLCO",30%
same,inhibition at 15 g/ha,"Polygonum convolvulus; Fallopia convolvulus, 504 h, pyroxasulfone solo 15 gai/ha, POLCO",30%
same,inhibition at 30 g/ha,"Polygonum convolvulus; Fallopia convolvulus, 504 h, pyroxasulfone solo 30 gai/ha, POLCO",30%
same,inhibition at 60 g/ha,"Polygonum convolvulus; Fallopia convolvulus, 504 h, pyroxasulfone solo 60 gai/ha, POLCO",30%
same,pest or weed control at 15 g/ha,"Setaria viridis; Setaria viridis, 504 h, SETVI, solo pyroxasulfone (WG 85%) 15 gai/ha",40%
same,pest or weed control at 15 g/ha,Galium aparine; solo pyroxasulfone (WG 85%) 15 gai/ha,70%
same,inhibition at […],Galium aparine; pyroxasulfone solo 7.5 gai/ha,40%
same,inhibition at 30 g/ha,Stellaria media,0%
same,inhibition at 60 g/ha,"Echinocloa crus-galli; Echinochloa crus-galli, 504 h, pyroxasulfone solo 60 gai/ha, read-out: % activity",80%
same,pest or weed control at […],"Digitaria sanguinalis; Digitaria sanguinalis, 504 h, DIGSA, solo pyroxasulfone (WG 85%) 7.5 gai/ha",0%
same,pest or weed control at 15 g/ha,"Digitaria sanguinalis; Digitaria sanguinalis, 504 h, DIGSA, solo pyroxasulfone (WG 85%) 15 gai/ha",0%
same,inhibition at […],"Bromus sterilis; Bromus sterilis, 504 h, pyroxasulfone solo 7.5 gai/ha, BROST",20%
same,inhibition at 15 g/ha,"Bromus sterilis; Bromus sterilis, 504 h, pyroxasulfone solo 15 gai/ha, BROST",40%
same,inhibition at […],Brachiaria decumbens; pyroxasulfone solo 7.5 gai/ha,0%
same,inhibition at 30 g/ha,"Brachiaria decumbens; pyroxasulfone solo 30 gai/ha, read-out: % activity",55%
same,inhibition at 60 g/ha,"Brachiaria decumbens; pyroxasulfone solo 60 gai/ha, read-out: % activity",75%
same,inhibition at 30 g/ha,"Ambrosia elatior; Ambrosia artemisiifolia, 504 h, pyroxasulfone solo 30 gai/ha, AMBEL",20%
same,inhibition at 60 g/ha,"Ambrosia elatior; Ambrosia artemisiifolia, 504 h, pyroxasulfone solo 60 gai/ha, AMBEL",60%
Cc1c(C(=O)c2cnn(C)c2O)ccc(S(C)(=O)=O)c1C1=NOCC1 [topramezone],% activity,Poa annua; topramezone solo 3 gai/ha,0%
same,% activity,Poa annua; topramezone solo 6 gai/ha,0%
same,% activity,Poa annua; topramezone solo 12 gai/ha,0%
same,% activity,Poa annua; topramezone solo 24 gai/ha,0%
same,% activity,"Poa annua; POAAN, solo topramezone (SC 336 g/l) 3 gai/ha",0%
same,% activity,"Poa annua; POAAN, solo topramezone (SC 336 g/l) 6 gai/ha",0%
same,% activity,"Poa annua; POAAN, solo topramezone (SC 336 g/l) 12 gai/ha",0%
same,% activity,"Poa annua; POAAN, solo topramezone (SC 336 g/l) 24 gai/ha",0%
same,% activity,Alopecurus myosuroides; topramezone solo 3 gai/ha,0%
same,% activity,Alopecurus myosuroides; topramezone solo 6 gai/ha,0%
same,% activity,Alopecurus myosuroides; topramezone solo 12 gai/ha,0%
same,% activity,Alopecurus myosuroides; topramezone solo 24 gai/ha,10%
same,% activity,"Alopecurus myosuroides; ALOMY, solo topramezone (SC 336 g/l) 3 gai/ha",0%
same,% activity,"Alopecurus myosuroides; ALOMY, solo topramezone (SC 336 g/l) 6 gai/ha",0%
same,% activity,"Alopecurus myosuroides; ALOMY, solo topramezone (SC 336 g/l) 12 gai/ha",0%
same,% activity,Papaver rhoeas; topramezone solo 12 gai/ha,20%
same,% activity,Papaver rhoeas; topramezone solo 24 gai/ha,40%
same,% activity,"Papaver rhoeas; PAPRH, solo topramezone (SC 336 g/l) 3 gai/ha",0%
same,% activity,"Papaver rhoeas; PAPRH, solo topramezone (SC 336 g/l) 6 gai/ha",0%
same,% activity,Matricaria chamomilla; topramezone solo 6 gai/ha,30%
same,% activity,Lolium multiflorum; topramezone solo 3 gai/ha,0%
same,% activity,Lolium multiflorum; topramezone solo 6 gai/ha,0%
same,% activity,Lolium multiflorum; topramezone solo 12 gai/ha,10%
same,% activity,Lolium multiflorum; topramezone solo 24 gai/ha,20%
same,% activity,"Lolium multiflorum; LOLMU, solo topramezone (SC 336 g/l) 6 gai/ha",0%
same,% activity,Polygonum convolvulus; topramezone solo 3 gai/ha,0%
same,% activity,Polygonum convolvulus; topramezone solo 6 gai/ha,30%
same,% activity,Polygonum convolvulus; topramezone solo 12 gai/ha,30%
same,% activity,Polygonum convolvulus; topramezone solo 24 gai/ha,85%
same,% activity,Setaria viridis; topramezone solo 3 gai/ha,70%
same,% activity,Echinocloa crus-galli; solo topramezone (SC 336 g/l) 3 gai/ha,70%
same,% activity,Echinocloa crus-galli; solo topramezone (SC 336 g/l) 12 gai/ha,98%
same,% activity,Echinocloa crus-galli; solo topramezone (SC 336 g/l) 24 gai/ha,98%
same,% activity,Digitaria sanguinalis; topramezone solo 3 gai/ha,75%
same,% activity,Bromus sterilis; topramezone solo 3 gai/ha,0%
same,% activity,Bromus sterilis; topramezone solo 6 gai/ha,0%
same,% activity,Bromus sterilis; topramezone solo 12 gai/ha,5%
same,% activity,Bromus sterilis; topramezone solo 24 gai/ha,25%
same,% activity,Apera spica-venti; topramezone solo 3 gai/ha,0%
same,% activity,Apera spica-venti; topramezone solo 6 gai/ha,0%
same,% activity,Apera spica-venti; topramezone solo 12 gai/ha,30%
same,% activity,Ambrosia elatior; topramezone solo 6 gai/ha,95%
